Experimental data: ChEMBL document CHEMBL1201862, “PubChem BioAssay data set” (2004)
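Where inhibition never reached the appropriate level, the endpoint shown equals the highest concentration tested. Otherwise, values were interpolated linearly from a five-concentration, 48-hour dose response in 96-well plates. GI50 is the concentration that inhibits growth by half.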 Calls of active or inactive are those of the source. Cut-off read from the data, not from the text of the source: active = GI50 up to about 1.1 µM and inactive = higher.

What was measured:
Experiment in all cases: DTP human tumour cell line panel, 48 h
HL-60 = system: HL-60
BT-549 = system: BT-549
MDA-MB-231 = system: MDA-MB-231
SR = system: SR
RPMI-8226 = system: RPMI-8226
PC-3 = system: PC-3
IGROV-1 = system: IGROV-1
MDA-N = system: MDA-N
HOP-62 = system: HOP-62
UACC-257 = system: UACC-257
SK-OV-3 = system: SK-OV-3
SF-539 = system: SF-539
HCC 2998 = system: HCC 2998
TK-10 = system: TK-10
SNB-19 = system: SNB-19
SN12C = system: SN12C
Hs-578T = system: Hs-578T
K562 = system: K562
NCI-H23 = system: NCI-H23
A498 = system: A498

Compound	GI50 (HL-60)	GI50 (BT-549)	GI50 (MDA-MB-231)	GI50 (SR)	GI50 (RPMI-8226)	GI50 (PC-3)	GI50 (IGROV-1)	GI50 (MDA-N)	GI50 (HOP-62)	GI50 (UACC-257)	GI50 (SK-OV-3)	GI50 (SF-539)	GI50 (HCC 2998)	GI50 (TK-10)	GI50 (SNB-19)	GI50 (SN12C)	GI50 (Hs-578T)	GI50 (K562)	GI50 (NCI-H23)	GI50 (A498)
N#CC1CCN2N=C(c3ccccc3)SC12c1ccccc1 (stereo not drawn)	32.9 µM (inactive)	43 µM (inactive)	> 100 µM (inactive)	37.1 µM (inactive)	26.3 µM (inactive)	35.7 µM (inactive)	> 100 µM (inactive)	54.7 µM (inactive)	> 100 µM (inactive)	39.3 µM (inactive)	> 100 µM (inactive)	78.2 µM (inactive)	26.7 µM (inactive)	> 100 µM (inactive)	> 100 µM (inactive)	40.4 µM (inactive)	88.3 µM (inactive)	28.6 µM (inactive)	32 µM (inactive)	–
CCOC(=O)C(C(=O)COC(C)(C)C)[C@@H]1C=C[C@H](OC(C)=O)C1 (stereo partly drawn)	–	> 100 µM (inactive)	> 100 µM (inactive)	–	> 100 µM (inactive)	> 100 µM (inactive)	–	> 100 µM (inactive)	> 100 µM (inactive)	> 100 µM (inactive)	> 100 µM (inactive)	> 100 µM (inactive)	> 100 µM (inactive)	–	> 100 µM (inactive)	> 100 µM (inactive)	> 100 µM (inactive)	> 100 µM (inactive)	> 100 µM (inactive)	> 100 µM (inactive)
C/C(=N/NC(=S)Nc1ccc(C)cc1)c1ccccn1	< 0.0132 µM (active)	4.38 µM (inactive)	< 0.0154 µM (active)	–	< 0.0156 µM (active)	< 0.0153 µM (active)	< 0.0155 µM (active)	1.1 µM (active)	0.029 µM (active)	< 0.0163 µM (active)	0.0363 µM (active)	0.815 µM (active)	3.48 µM (inactive)	0.19 µM (active)	2.29 µM (inactive)	0.192 µM (active)	0.859 µM (active)	< 0.0127 µM (active)	< 0.0185 µM (active)	2.51 µM (inactive)
Oc1ccc(Cl)cc1/N=N\c1c(O)ccc2ccccc12	78.9 µM (inactive)	> 100 µM (inactive)	> 100 µM (inactive)	> 100 µM (inactive)	> 100 µM (inactive)	> 100 µM (inactive)	> 100 µM (inactive)	> 100 µM (inactive)	> 100 µM (inactive)	> 100 µM (inactive)	> 100 µM (inactive)	–	–	> 100 µM (inactive)	> 100 µM (inactive)	> 100 µM (inactive)	> 100 µM (inactive)	> 100 µM (inactive)	> 100 µM (inactive)	–
O=S(=O)(Nc1nc2ccccc2nc1N1CCCCCC1)c1ccccc1	23.2 µM (inactive)	19 µM (inactive)	> 100 µM (inactive)	25.3 µM (inactive)	48.2 µM (inactive)	19.4 µM (inactive)	20.8 µM (inactive)	> 100 µM (inactive)	23 µM (inactive)	24.5 µM (inactive)	28.2 µM (inactive)	29.2 µM (inactive)	11.8 µM (inactive)	16.8 µM (inactive)	28.2 µM (inactive)	> 100 µM (inactive)	17.5 µM (inactive)	> 100 µM (inactive)	19.1 µM (inactive)	–
CC(C)C1CC(CO)(CNc2nc(N)nc(Cl)c2C=O)C1 (stereo not drawn)	1.57 µM (inactive)	11.4 µM (inactive)	2.45 µM (inactive)	–	11 µM (inactive)	2.1 µM (inactive)	1.89 µM (inactive)	2.85 µM (inactive)	18.8 µM (inactive)	2.49 µM (inactive)	6.79 µM (inactive)	13.7 µM (inactive)	1.97 µM (inactive)	> 66.8 µM (inactive)	6.04 µM (inactive)	3.75 µM (inactive)	4.38 µM (inactive)	2.56 µM (inactive)	2.22 µM (inactive)	15.1 µM (inactive)
CCOC(=O)CC1(Cc2ccc(OCc3ccccc3)cc2)C(=O)OC(c2ccccc2)N1C(=O)c1ccccc1 (stereo not drawn)	> 100 µM (inactive)	> 100 µM (inactive)	68.9 µM (inactive)	> 100 µM (inactive)	> 100 µM (inactive)	> 100 µM (inactive)	> 100 µM (inactive)	> 100 µM (inactive)	> 100 µM (inactive)	> 100 µM (inactive)	> 100 µM (inactive)	> 100 µM (inactive)	28 µM (inactive)	> 100 µM (inactive)	> 100 µM (inactive)	> 100 µM (inactive)	> 100 µM (inactive)	> 100 µM (inactive)	> 100 µM (inactive)	–
COc1cc(OC)c2c(=O)c(OC)c(-c3ccc4c(c3)OCO4)oc2c1OC	6.82 µM (inactive)	> 100 µM (inactive)	91.4 µM (inactive)	–	–	> 100 µM (inactive)	> 100 µM (inactive)	> 100 µM (inactive)	91.8 µM (inactive)	> 100 µM (inactive)	> 100 µM (inactive)	> 100 µM (inactive)	> 100 µM (inactive)	> 100 µM (inactive)	> 100 µM (inactive)	> 100 µM (inactive)	> 100 µM (inactive)	> 100 µM (inactive)	> 100 µM (inactive)	> 100 µM (inactive)
O=S(=O)(O)c1ccc(/N=N/c2ccc(/N=N/c3c(O)ccc4ccccc34)cc2)cc1	0.893 µM (active)	> 100 µM (inactive)	> 100 µM (inactive)	4.76 µM (inactive)	> 100 µM (inactive)	> 100 µM (inactive)	38.6 µM (inactive)	> 100 µM (inactive)	> 100 µM (inactive)	> 100 µM (inactive)	> 100 µM (inactive)	–	> 100 µM (inactive)	> 100 µM (inactive)	> 100 µM (inactive)	> 100 µM (inactive)	> 100 µM (inactive)	> 100 µM (inactive)	> 94.2 µM (inactive)	–
CC[C@H](NC1=C(Cl)C(=O)c2c(O)ccc(O)c2C1=O)C(=O)OC	3.79 µM (inactive)	> 10 µM (inactive)	3.33 µM (inactive)	1.64 µM (inactive)	> 10 µM (inactive)	6.9 µM (inactive)	> 10 µM (inactive)	6.55 µM (inactive)	> 10 µM (inactive)	3.66 µM (inactive)	> 10 µM (inactive)	3.44 µM (inactive)	–	> 10 µM (inactive)	> 10 µM (inactive)	3.05 µM (inactive)	> 10 µM (inactive)	3.94 µM (inactive)	> 10 µM (inactive)	–
COC(=O)c1cc(C)ccc1CC(Cc1ccccc1C)C(=O)OC (stereo not drawn)	13.2 µM (inactive)	61.7 µM (inactive)	59.6 µM (inactive)	–	–	55.2 µM (inactive)	45.9 µM (inactive)	28.4 µM (inactive)	> 100 µM (inactive)	27 µM (inactive)	> 100 µM (inactive)	> 100 µM (inactive)	34.9 µM (inactive)	> 100 µM (inactive)	> 100 µM (inactive)	44.9 µM (inactive)	27.9 µM (inactive)	10.6 µM (inactive)	40.1 µM (inactive)	60.4 µM (inactive)
N=C(N)n1nc2c(c1O)CCC2	> 100 µM (inactive)	> 100 µM (inactive)	> 100 µM (inactive)	< 0.01 µM (active)	–	> 100 µM (inactive)	> 100 µM (inactive)	> 100 µM (inactive)	> 100 µM (inactive)	> 100 µM (inactive)	> 100 µM (inactive)	> 100 µM (inactive)	> 100 µM (inactive)	> 100 µM (inactive)	> 100 µM (inactive)	> 100 µM (inactive)	> 100 µM (inactive)	> 100 µM (inactive)	> 100 µM (inactive)	–
COc1cc(N(CCC#N)CCC#N)ccc1C(/N=N/c1cccc(C)c1)=N\NC(=O)c1ccc(C)cc1	47.3 µM (inactive)	> 100 µM (inactive)	> 100 µM (inactive)	–	35.7 µM (inactive)	> 100 µM (inactive)	> 100 µM (inactive)	> 100 µM (inactive)	> 100 µM (inactive)	> 100 µM (inactive)	> 100 µM (inactive)	–	79.3 µM (inactive)	57.7 µM (inactive)	> 100 µM (inactive)	> 100 µM (inactive)	> 100 µM (inactive)	> 100 µM (inactive)	> 100 µM (inactive)	4.78 µM (inactive)
Cc1nnc(N2C(=O)C(=Cc3ccc(Cl)cc3)N=C2c2ccc(Cl)cc2)nc1/C=C\c1ccc(N(C)C)cc1	93.8 µM (inactive)	> 100 µM (inactive)	> 100 µM (inactive)	–	72.3 µM (inactive)	> 100 µM (inactive)	> 100 µM (inactive)	73.1 µM (inactive)	> 100 µM (inactive)	> 100 µM (inactive)	> 100 µM (inactive)	–	> 100 µM (inactive)	> 100 µM (inactive)	> 100 µM (inactive)	> 100 µM (inactive)	> 100 µM (inactive)	73.3 µM (inactive)	> 100 µM (inactive)	> 100 µM (inactive)
O=C(c1cc2ccccc2[nH]1)N1C2CCC1CN(CCOC(c1ccc(F)cc1)c1ccc(F)cc1)CC2 (stereo not drawn)	6.85 µM (inactive)	> 100 µM (inactive)	9.2 µM (inactive)	–	9.2 µM (inactive)	2.79 µM (inactive)	2.26 µM (inactive)	> 100 µM (inactive)	> 100 µM (inactive)	12.5 µM (inactive)	> 100 µM (inactive)	19.1 µM (inactive)	> 100 µM (inactive)	> 100 µM (inactive)	> 100 µM (inactive)	18.2 µM (inactive)	> 100 µM (inactive)	5.15 µM (inactive)	40.1 µM (inactive)	> 100 µM (inactive)
